Tests used:
[1] = target: Protein kinase C alpha type (Homo sapiens, UniProt P17252)
[2] = target: Tyrosine-protein kinase BTK (Homo sapiens, UniProt Q06187)
[3] = target: Cyclin-dependent kinase 2 (Homo sapiens, UniProt P24941)
[4] = target: T1, Serine/threonine-protein kinase 36 (Homo sapiens, UniProt Q9NRP7)
T1 sequence (Q9NRP7 whole entry): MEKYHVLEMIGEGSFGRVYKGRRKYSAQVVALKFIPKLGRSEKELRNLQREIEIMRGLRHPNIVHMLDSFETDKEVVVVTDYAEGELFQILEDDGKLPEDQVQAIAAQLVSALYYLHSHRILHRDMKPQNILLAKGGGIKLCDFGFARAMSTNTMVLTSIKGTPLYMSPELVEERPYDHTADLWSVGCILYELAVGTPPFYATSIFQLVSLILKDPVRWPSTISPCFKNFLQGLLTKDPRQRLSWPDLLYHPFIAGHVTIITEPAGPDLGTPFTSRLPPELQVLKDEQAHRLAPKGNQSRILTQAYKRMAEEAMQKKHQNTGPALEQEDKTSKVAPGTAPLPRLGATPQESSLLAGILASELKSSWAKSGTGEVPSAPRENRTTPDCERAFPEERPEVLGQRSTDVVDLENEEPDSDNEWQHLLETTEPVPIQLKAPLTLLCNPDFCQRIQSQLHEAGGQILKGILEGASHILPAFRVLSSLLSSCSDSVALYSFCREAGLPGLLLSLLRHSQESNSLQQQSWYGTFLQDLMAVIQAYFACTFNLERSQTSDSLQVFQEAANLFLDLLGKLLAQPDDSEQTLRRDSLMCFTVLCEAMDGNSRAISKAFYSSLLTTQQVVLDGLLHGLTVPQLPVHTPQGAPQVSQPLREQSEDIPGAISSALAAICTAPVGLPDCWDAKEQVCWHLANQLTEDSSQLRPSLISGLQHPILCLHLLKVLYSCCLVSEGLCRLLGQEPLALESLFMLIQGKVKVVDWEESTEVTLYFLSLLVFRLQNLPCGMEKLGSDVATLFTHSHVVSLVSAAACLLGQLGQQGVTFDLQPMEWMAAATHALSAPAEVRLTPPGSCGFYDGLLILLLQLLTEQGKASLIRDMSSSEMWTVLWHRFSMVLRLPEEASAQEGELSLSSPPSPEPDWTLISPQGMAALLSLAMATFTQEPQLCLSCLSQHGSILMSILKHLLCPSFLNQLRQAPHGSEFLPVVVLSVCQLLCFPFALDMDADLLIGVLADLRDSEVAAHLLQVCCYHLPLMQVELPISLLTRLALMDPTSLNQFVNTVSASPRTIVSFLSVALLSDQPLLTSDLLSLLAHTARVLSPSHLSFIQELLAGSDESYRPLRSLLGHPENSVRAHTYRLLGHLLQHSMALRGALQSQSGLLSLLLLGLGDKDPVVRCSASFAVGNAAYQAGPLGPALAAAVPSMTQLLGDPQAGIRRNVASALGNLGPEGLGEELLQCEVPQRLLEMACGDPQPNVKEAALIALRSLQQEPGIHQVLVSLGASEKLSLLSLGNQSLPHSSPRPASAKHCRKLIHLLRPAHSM

Ephrin type-B receptor 1 = target: T2, Ephrin type-B receptor 1 (Homo sapiens, UniProt P54762)
T2 sequence (P54762 whole entry): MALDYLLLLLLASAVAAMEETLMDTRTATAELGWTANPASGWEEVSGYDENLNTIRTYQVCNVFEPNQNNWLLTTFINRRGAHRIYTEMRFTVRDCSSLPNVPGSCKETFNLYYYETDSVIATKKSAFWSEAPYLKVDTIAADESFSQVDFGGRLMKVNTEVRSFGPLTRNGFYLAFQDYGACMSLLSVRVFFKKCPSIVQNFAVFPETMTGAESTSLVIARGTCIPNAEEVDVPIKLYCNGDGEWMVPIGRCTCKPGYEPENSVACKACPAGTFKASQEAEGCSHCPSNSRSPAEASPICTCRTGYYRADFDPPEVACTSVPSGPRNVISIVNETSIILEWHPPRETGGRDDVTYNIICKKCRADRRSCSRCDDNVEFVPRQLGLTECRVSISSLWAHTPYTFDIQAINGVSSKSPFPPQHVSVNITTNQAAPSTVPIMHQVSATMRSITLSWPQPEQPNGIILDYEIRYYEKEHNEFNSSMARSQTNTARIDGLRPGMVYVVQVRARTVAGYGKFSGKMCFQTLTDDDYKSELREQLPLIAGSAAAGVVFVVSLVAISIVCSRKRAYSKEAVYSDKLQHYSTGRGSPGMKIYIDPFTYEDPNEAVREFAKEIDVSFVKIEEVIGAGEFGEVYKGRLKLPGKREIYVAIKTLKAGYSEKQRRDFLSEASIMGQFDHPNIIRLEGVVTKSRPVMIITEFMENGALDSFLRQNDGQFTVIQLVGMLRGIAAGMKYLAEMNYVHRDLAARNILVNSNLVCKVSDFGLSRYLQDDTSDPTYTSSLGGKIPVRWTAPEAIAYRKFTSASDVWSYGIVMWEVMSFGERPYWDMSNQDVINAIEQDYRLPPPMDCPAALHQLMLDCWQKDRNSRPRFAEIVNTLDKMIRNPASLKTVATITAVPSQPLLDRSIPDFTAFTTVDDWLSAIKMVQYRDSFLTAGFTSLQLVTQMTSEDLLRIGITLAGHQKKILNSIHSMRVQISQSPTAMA

[5] = target: Casein kinase I isoform gamma-1 (Homo sapiens, UniProt Q9HCP0)
Sequence of Casein kinase I isoform gamma-1 (Q9HCP0 whole entry, canonical isoform): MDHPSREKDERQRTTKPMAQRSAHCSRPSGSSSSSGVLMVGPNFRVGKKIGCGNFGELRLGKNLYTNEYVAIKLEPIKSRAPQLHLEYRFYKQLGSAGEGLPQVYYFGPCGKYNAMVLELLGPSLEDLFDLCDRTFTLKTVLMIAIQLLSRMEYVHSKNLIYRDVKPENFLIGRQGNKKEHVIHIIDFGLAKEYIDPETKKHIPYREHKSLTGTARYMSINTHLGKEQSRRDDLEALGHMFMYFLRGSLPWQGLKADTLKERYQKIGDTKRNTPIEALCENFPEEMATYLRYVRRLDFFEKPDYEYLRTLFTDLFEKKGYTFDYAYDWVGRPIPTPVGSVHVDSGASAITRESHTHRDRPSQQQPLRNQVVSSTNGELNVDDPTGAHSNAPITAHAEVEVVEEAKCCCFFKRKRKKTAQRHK

[6] = target: Tyrosine-protein kinase Fer (Homo sapiens, UniProt P16591)
Sequence of Tyrosine-protein kinase Fer (P16591 whole entry): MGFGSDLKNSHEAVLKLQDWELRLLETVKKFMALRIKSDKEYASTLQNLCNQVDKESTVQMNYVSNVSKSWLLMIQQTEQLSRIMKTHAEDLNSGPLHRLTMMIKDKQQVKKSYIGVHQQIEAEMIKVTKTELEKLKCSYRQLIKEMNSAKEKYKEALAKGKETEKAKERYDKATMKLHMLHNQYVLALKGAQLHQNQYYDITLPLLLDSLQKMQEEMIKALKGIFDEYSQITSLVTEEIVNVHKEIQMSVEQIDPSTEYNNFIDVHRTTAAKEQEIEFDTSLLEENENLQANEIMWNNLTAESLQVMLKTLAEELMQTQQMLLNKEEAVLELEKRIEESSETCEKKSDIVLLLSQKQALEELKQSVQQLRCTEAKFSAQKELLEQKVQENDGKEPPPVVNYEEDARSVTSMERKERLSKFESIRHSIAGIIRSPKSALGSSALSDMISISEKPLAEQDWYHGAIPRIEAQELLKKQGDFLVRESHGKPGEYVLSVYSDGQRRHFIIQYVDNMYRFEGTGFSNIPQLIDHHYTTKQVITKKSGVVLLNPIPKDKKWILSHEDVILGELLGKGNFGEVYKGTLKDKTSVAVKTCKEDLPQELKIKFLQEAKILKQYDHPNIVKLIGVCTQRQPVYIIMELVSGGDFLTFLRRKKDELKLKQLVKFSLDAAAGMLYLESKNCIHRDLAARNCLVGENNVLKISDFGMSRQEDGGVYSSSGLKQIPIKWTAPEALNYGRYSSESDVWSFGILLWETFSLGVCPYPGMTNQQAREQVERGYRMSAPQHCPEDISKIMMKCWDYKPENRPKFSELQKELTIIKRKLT

[7] = target: T3, Serine/threonine-protein kinase ULK3 (Mus musculus, UniProt Q3U3Q1)
T3 sequence (Q3U3Q1 whole entry): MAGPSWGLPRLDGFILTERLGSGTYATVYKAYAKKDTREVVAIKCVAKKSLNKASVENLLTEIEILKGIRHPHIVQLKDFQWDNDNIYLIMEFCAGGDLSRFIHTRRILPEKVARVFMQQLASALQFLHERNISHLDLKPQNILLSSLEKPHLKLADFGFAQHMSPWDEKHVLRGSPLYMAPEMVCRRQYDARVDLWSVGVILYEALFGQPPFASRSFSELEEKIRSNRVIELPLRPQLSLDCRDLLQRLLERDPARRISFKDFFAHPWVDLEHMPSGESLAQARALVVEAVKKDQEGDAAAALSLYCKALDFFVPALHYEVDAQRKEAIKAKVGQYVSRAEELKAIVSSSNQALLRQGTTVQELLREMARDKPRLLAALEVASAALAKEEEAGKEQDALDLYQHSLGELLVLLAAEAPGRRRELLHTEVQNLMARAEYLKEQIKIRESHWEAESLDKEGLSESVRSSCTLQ

Measured: Kd

Sequence of Tyrosine-protein kinase BTK (Q06187 whole entry): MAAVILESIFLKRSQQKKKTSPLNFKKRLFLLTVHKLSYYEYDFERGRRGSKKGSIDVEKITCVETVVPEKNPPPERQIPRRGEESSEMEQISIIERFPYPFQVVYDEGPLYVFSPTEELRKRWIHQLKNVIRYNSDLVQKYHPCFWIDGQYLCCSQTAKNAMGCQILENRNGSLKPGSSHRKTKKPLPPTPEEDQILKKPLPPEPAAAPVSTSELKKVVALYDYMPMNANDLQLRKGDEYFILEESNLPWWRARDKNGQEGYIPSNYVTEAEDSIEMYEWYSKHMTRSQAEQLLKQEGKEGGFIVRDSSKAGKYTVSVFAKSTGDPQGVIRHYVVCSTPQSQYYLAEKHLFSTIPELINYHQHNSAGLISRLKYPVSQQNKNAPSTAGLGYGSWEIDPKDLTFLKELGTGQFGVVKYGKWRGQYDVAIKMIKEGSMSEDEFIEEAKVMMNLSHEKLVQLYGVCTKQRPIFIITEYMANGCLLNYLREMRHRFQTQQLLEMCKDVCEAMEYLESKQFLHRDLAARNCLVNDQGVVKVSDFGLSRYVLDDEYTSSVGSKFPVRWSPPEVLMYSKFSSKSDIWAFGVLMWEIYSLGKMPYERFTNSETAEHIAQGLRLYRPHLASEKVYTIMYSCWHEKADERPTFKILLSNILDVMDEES

C#Cc1cccc(Nc2ncnc3cc(OCCOC)c(OCCOC)cc23)c1 [ERLOTINIB]
Not Active: [1] | [2] | [3] | [4] | Ephrin type-B receptor 1 | [5] | [6]

COc1cc2c(N3CCN(C(=O)Nc4ccc(OC(C)C)cc4)CC3)ncnc2cc1OCCCN1CCCCC1 [TANDUTINIB]
Not Active: [1] | [2] | [3] | [4] | Ephrin type-B receptor 1 | [7] | [5] | [6]

O=c1ncn2nc(Sc3ccc(F)cc3F)ccc2c1-c1c(Cl)cccc1Cl [NEFLAMAPIMOD]
Not Active: [1] | [2] | [3] | [4] | [7] | [5] | [6]

C[S+]([O-])c1ccc(-c2nc(-c3ccc(F)cc3)c(-c3ccncc3)[nH]2)cc1 (configuration not stated) [SB-203580]
Not Active: [1] | [2] | [3] | Ephrin type-B receptor 1 | [7] | [5] | [6]

Cc1ccc(NC(=O)c2ccc(CN3CCN(C)CC3)cc2)cc1Nc1nccc(-c2cccnc2)n1 [IMATINIB]
Not Active: [1] | [2] | [4] | Ephrin type-B receptor 1 | [7] | [5] | [6]

CC[C@H](CO)Nc1nc(NCc2ccccc2)c2ncn(C(C)C)c2n1 [SELICICLIB]
Not Active: [1] | [2] | [4] | Ephrin type-B receptor 1 | [7] | [6]

Oc1ccc(-c2nc(-c3ccc(F)cc3)c(-c3ccncc3)[nH]2)cc1 [SB-202190]
Not Active: [1] | [2] | [3] | Ephrin type-B receptor 1 | [7] | [5] | [6]

CCOc1cc2ncc(C#N)c(Nc3ccc(F)c(Cl)c3)c2cc1NC(=O)/C=C/CN(C)C [PELITINIB]
Not Active: [1] | [3] | [5]

Oc1c2ccccc2c2c3c(cccc13)N=N2 [SP-600125]
Not Active: [1] | [2] | [4] | Ephrin type-B receptor 1 | [6]

Reference: ChEMBL document CHEMBL1144455, “A small molecule-kinase interaction map for clinical kinase inhibitors” (Nat Biotechnol, 2005)
